By TGI is commonly meant the concentration giving total growth inhibition. The term GI50 denotes the concentration at which growth is held to half of that of the control.

Experimental findings from PubChem BioAssay (NCI) are described below.

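96-well plates; 48 h exposure; 5 concentrations. Endpoints by linear interpolation between flanking doses. Not reached: highest tested concentration assigned. GI50 is the concentration that inhibits growth by half. TGI: concentration producing complete growth inhibition.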 A value given as a limit tells only on which side of the number the result lay.

Some test systems named below: OVCAR-4 ovarian; SK-MEL-5 melanoma; OVCAR-5 ovarian; NCI-H522 lung; HL-60(TB) leukemia; BT-549 breast; NCI-H23 lung; SNB-75 CNS; SNB-19 CNS; UACC-62 melanoma.
Holding throughout (assay): DTP human tumour cell line panel, 48 h

Regarding `COc1cc(O)ccc1C(=S)SC`, the TGI in the assay on OVCAR-4 ovarian, with SK-MEL-5 melanoma, with OVCAR-5 ovarian, with NCI-H522 lung, in the assay with HL-60(TB) leukemia and in the assay on BT-549 breast was greater than 100 µM throughout. Besides, the TGI in the assay on NCI-H23 lung, with SNB-75 CNS, in the assay on SNB-19 CNS and in the assay with UACC-62 melanoma was greater than 100 µM throughout.

`COc1ccc(-c2ccc(OC)c(OC)c2OC)cc1`: the GI50 is 5.42 µM in the assay on OVCAR-4 ovarian; 2.68 µM with SK-MEL-5 melanoma; 8.66 µM in the assay with OVCAR-5 ovarian; 1.56 µM in the assay on NCI-H522 lung; 1.04 µM in the assay with HL-60(TB) leukemia; 1.57 µM in the assay on BT-549 breast. Besides, the GI50 in the assay with NCI-H23 lung is 4.19 µM; with SNB-75 CNS, 3.34 µM; in the assay with SNB-19 CNS, 4.83 µM; in the assay on UACC-62 melanoma it was 3.29 µM. In addition, the TGI in the assay on OVCAR-4 ovarian was greater than 100 µM; in the assay on SK-MEL-5 melanoma, greater than 45.2 µM; in the assay with OVCAR-5 ovarian, greater than 100 µM; in the assay on NCI-H522 lung, greater than 27.9 µM; in the assay on HL-60(TB) leukemia, 9.93 µM; in the assay on BT-549 breast it was greater than 62.6 µM. Moreover, the TGI in the assay with NCI-H23 lung, in the assay with SNB-75 CNS, in the assay on SNB-19 CNS and in the assay on UACC-62 melanoma was greater than 100 µM each time.

`CN1CCN(C2=NC(=O)/C(=C\c3ccc(N(C)C)cc3)S2)CC1`: the GI50 in the assay on OVCAR-4 ovarian is greater than 100 µM; in the assay on SK-MEL-5 melanoma, greater than 100 µM; in the assay on OVCAR-5 ovarian it was greater than 100 µM; with NCI-H522 lung it was greater than 100 µM; in the assay on HL-60(TB) leukemia, 46 µM; in the assay on BT-549 breast, greater than 100 µM. In addition, the GI50 is greater than 100 µM in the assay on NCI-H23 lung, 48.2 µM with SNB-75 CNS, greater than 100 µM in the assay on SNB-19 CNS and 91.7 µM with UACC-62 melanoma. The TGI with OVCAR-4 ovarian, in the assay with SK-MEL-5 melanoma, in the assay on OVCAR-5 ovarian, in the assay with NCI-H522 lung, in the assay with HL-60(TB) leukemia and in the assay with BT-549 breast was greater than 100 µM each time. Further, the TGI in the assay with NCI-H23 lung, in the assay on SNB-75 CNS, in the assay on SNB-19 CNS and with UACC-62 melanoma was greater than 100 µM throughout.

As to `N=C1CCCC1C(=S)SCCC(N)=O` (stereo not given), the TGI with OVCAR-4 ovarian, in the assay on SK-MEL-5 melanoma, in the assay with OVCAR-5 ovarian, in the assay with NCI-H522 lung, in the assay with HL-60(TB) leukemia and with BT-549 breast was greater than 100 µM in each case. The TGI with NCI-H23 lung, in the assay with SNB-75 CNS, in the assay on SNB-19 CNS and in the assay on UACC-62 melanoma was greater than 100 µM throughout.

Consider `Cc1cccc(C2NC(=O)c3ccccc3N2)c1` (stereo not given), for which the TGI in the assay with OVCAR-4 ovarian is greater than 100 µM; in the assay with SK-MEL-5 melanoma it was greater than 100 µM; in the assay with OVCAR-5 ovarian it was greater than 100 µM; in the assay on NCI-H522 lung, 46.1 µM; in the assay with HL-60(TB) leukemia, greater than 27.2 µM; in the assay with BT-549 breast, greater than 100 µM. Besides, the TGI with NCI-H23 lung was greater than 54.7 µM; in the assay on SNB-75 CNS it was greater than 100 µM; in the assay on SNB-19 CNS, greater than 100 µM; in the assay on UACC-62 melanoma, greater than 100 µM.

For `CCN(CC)C(=S)SSC(C)C`, the GI50 was 13.4 µM in the assay with OVCAR-4 ovarian; 11.6 µM in the assay on SK-MEL-5 melanoma; 18.3 µM with OVCAR-5 ovarian; 0.0295 µM in the assay on NCI-H522 lung; 5.63 µM with HL-60(TB) leukemia; 13.4 µM with BT-549 breast. The GI50 is 16.4 µM in the assay on NCI-H23 lung, 15.8 µM with SNB-75 CNS, 31.8 µM in the assay with SNB-19 CNS and 16.7 µM in the assay on UACC-62 melanoma. For the same compound, the TGI in the assay with OVCAR-4 ovarian is 26.2 µM; in the assay with SK-MEL-5 melanoma it was 24.2 µM; with OVCAR-5 ovarian, 32.6 µM; in the assay with NCI-H522 lung, 1.34 µM; in the assay on HL-60(TB) leukemia, 29.8 µM; with BT-549 breast, 30.5 µM. The TGI with NCI-H23 lung was 36 µM; with SNB-75 CNS it was 37.6 µM; in the assay on SNB-19 CNS, greater than 100 µM; in the assay on UACC-62 melanoma, 35.4 µM.

With `O=C1NC(=NCCc2ccc(Cl)cc2)S/C1=C\c1ccc2ncccc2c1`, the GI50 is 8.94 µM in the assay on OVCAR-4 ovarian; 15.8 µM in the assay with SK-MEL-5 melanoma; greater than 25 µM in the assay on OVCAR-5 ovarian; 3.41 µM in the assay on NCI-H522 lung; 8.69 µM with HL-60(TB) leukemia; 13.9 µM with BT-549 breast. For the same compound, the GI50 in the assay on NCI-H23 lung is 23.3 µM; with SNB-75 CNS it was 6.77 µM; with SNB-19 CNS, greater than 25 µM; with UACC-62 melanoma, 17.4 µM. The TGI is greater than 25 µM in the assay on OVCAR-4 ovarian; greater than 25 µM with SK-MEL-5 melanoma; greater than 25 µM with OVCAR-5 ovarian; greater than 16 µM with NCI-H522 lung; greater than 25 µM with HL-60(TB) leukemia; greater than 25 µM with BT-549 breast. Also, the TGI with NCI-H23 lung is greater than 25 µM; with SNB-75 CNS, greater than 21.6 µM; with SNB-19 CNS it was greater than 25 µM; with UACC-62 melanoma it was greater than 25 µM.

Regarding `OCc1ccc(N(Cc2ccc(F)cc2)Cc2ccc(F)cc2)cc1Cl`, the GI50 in the assay on OVCAR-4 ovarian was 3.01 µM; with SK-MEL-5 melanoma, 15.3 µM; in the assay with OVCAR-5 ovarian, 2.11 µM; in the assay with NCI-H522 lung, 9.39 µM; in the assay on HL-60(TB) leukemia, 14.5 µM; in the assay with BT-549 breast, 13.5 µM. In addition, the GI50 with NCI-H23 lung was 7.95 µM; in the assay on SNB-75 CNS, 7.74 µM; with SNB-19 CNS it was 12.9 µM; with UACC-62 melanoma it was 2.61 µM. Further, the TGI in the assay with OVCAR-4 ovarian turned out to be 14.7 µM; in the assay with SK-MEL-5 melanoma, 28.9 µM; with OVCAR-5 ovarian, 11.9 µM; with NCI-H522 lung, 25.9 µM; with HL-60(TB) leukemia, 35.4 µM; in the assay with BT-549 breast, 28.4 µM. The TGI in the assay with NCI-H23 lung was 24.3 µM; in the assay with SNB-75 CNS it was 22 µM; in the assay on SNB-19 CNS it was 31.6 µM; in the assay with UACC-62 melanoma, 13.7 µM.
